Assays:
[1] = tested on: Passive cutaneous anaphylaxis (P.C.A.); test: Inhibition of passive cutaneous anaphylaxis (P.C.A.); assay type: in vivo, rat (Sprague-Dawley); conditions: Rattus norvegicus, 1 h; rats, 2 × 10^-5 mol/kg p.o., one hour before ovalbumin challenge
How it was run: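 Sprague-Dawley rats (150-180 g) were sensitized intradermally with rat IgE-rich anti-ovalbumin serum and challenged 24 h later with i.v. ovalbumin 8.25 mg/kg plus Evans blue. Compound was given orally at 2×10^-5 mol/kg 1 h before challenge. Dye exudation was scored visually at 30 min as % inhibition versus vehicle controls.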

cyclooxygenase = target: T1, cyclooxygenase (Mus musculus, UniProt P22437); test: Cyclooxygenase inhibition: release of 6-keto-PGF1 α from zymosan-stimulated mouse peritoneal macrophage cells; assay type: cell-based; conditions: 10^-5 mol/l, read-out: In vitro % inhibition effect on the release of 6-keto-PGF1 α
T1 construct: A cell suspension containing peritoneal cells of male mice 8-10 weeks old was obtained; endogenous in cells; host or cells: mouse peritoneal macrophages (male mice 8-10 weeks old), zymosan-stimulated
T1 sequence (P22437 27-602): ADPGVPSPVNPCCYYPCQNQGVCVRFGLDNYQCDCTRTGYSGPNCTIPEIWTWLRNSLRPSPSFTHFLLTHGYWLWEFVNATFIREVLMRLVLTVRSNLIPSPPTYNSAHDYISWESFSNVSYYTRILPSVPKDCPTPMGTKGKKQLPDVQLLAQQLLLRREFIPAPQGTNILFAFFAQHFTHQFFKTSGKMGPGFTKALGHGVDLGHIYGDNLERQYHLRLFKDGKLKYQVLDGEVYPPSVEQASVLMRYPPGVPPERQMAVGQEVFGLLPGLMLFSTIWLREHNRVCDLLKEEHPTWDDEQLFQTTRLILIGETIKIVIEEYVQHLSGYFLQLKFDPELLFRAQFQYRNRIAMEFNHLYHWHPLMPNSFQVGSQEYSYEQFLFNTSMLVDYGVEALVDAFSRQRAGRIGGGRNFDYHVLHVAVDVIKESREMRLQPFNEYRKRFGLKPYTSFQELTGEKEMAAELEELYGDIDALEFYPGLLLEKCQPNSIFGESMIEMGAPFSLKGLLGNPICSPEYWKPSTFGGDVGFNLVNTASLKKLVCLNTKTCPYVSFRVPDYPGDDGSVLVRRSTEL
Description: 5. In vitro determination of cyclooxygenase inhibition and 5-lipoxygenase inhibition.
After activation of the cell, arachidonic acid contained in cell membranes is metabolized in two ways. Leukotrienes, inter alia leukotriene C4, are formed under the action of the enzyme 5-lipoxygenase (5-LO), and prostanoids are formed under the action of the enzyme cyclooxygenase (CO). In in vitro systems, the metabolites are secreted from the cell.
To investigate the cyclooxygenase-inhibiting and the 5-lipoxygenase-inhibiting properties, the inhibitory effect of the test substances on the biosynthesis of the arachidonic acid derivatives leukotriene C4 (LTC4) and 6-ketoprostaglandin F1 α (6-keto-PGF1 α) is determined in vitro on mouse peritoneal macrophage cells. This was accomplished by determining the LTC4 and 6-keto-PGF1 α contents in a culture medium of mouse peritoneal macrophage cells by zymosan stimulation as described by Scott et al. (J. Exp. Med. 152 (1980), 324-335) and by Fradin et al. (Prostaglandins, 33 (1987), 579-589).
A cell suspension containing peritoneal cells of male mice 8-10 weeks old was obtained in a known manner. A commercially available cell culture solution (RPMI 1640 from Messrs. Gibco) was used to which heparin (I0 international units/ml) and antibiotics were added according to the recipe of Bonney et al. (Biochem. J. 176 (1978) 422-433). The cell suspension was adjusted to a cell concentration of 10^6 cells per ml and distributed uniformly on titer plates containing […] (wells). These were kept for two hours in a humidified incubator filled with air enriched with 7% CO2. Cells not adhering to the titer cell walls were then removed by washing. The remaining macrophage cells adhering to the walls were incubated for about 12 hours in a suspension medium to which 0.1% bovine serum albumin (BSA) were added. The suspension medium was then replaced by a Hanks balanced salt solution (HBSS) containing 10 mM Hepes (hydroxyethyl-piperazinoethanesulfonic acid), to which a 0.1% strength solution of the test substances in aqueous, 1% strength dimethylformamide or only the solvent had been added. After 15 minutes the arachidonic acid metabolism was stimulated by adding 10 particles of zymosan (=glycoproteinmixture, isolated from cell walls of beer yeast, Saccharomyces cerevisiae, manufactured by Sigma Chemical Co., Munich) per titer cell. After 2 hours, samples of each of the supernatant liquids were investigated for their 6-keto-PGF1 α and LTC4 contents by means of an enzyme immunoassay (EIA) carried out by the method of Pradelles et al. (Analytical Chem. 57 (1985), 1170-1173). The determination of LTC4 and the determination of 6-keto-PGF1 α were each carried out in comparison with a comparative scale on suitable dilutions of the samples (1:50 to 1:250 for the LTC4 determination and 1:250 to 1:1250 for the 6-keto-PGF1 α determination). To determine the inhibitory effect of a 10^-5 molar concentration of the compounds, the amount of reference eicosanoids was determined and the inhibitory effect was calculated from this in % inhibition compared to the measurements of the zymosan controls.

Row | Structure (SMILES) | inhibition in vivo at 20 µmol/kg [1] [%] | inhibition at 10 µM (cyclooxygenase) [%]
1 | CCCCC1CCc2cccc3c(CCN4CCN(c5cc(C)ccn5)CC4)c(C)n1c23 (stereo not drawn) [Example 73, 4-n-butyl-5,6-dihydro-2-methyl-1-{2-[4-(4-methylpyridin-2-yl)piperazin-1-yl]ethyl}-4H-pyrrolo[3,2,1-ij]quinoline] | 100 | 29
2 | Cc1ccnc(N2CCN(CCc3c(C)n4c5c(cccc35)CCC4c3ccc(O)cc3)CC2)c1 (stereo not drawn) [Example 61] | 100 | 65
3 | Cc1ccc(N2CCN(CCc3c(C)n4c5c(cccc35)CCC4)CC2)nc1 [Example 42] | 50 | 76
4 | COc1ccc(-c2c(CCN3CCN(c4cc(C)ccn4)CC3)c3cccc4c3n2CCC4)cc1 [Example 7, 2-(4-methoxy-phenyl)-1-{2-[4-(4-methylpyridin-2-yl)piperazin-1-yl]ethyl}-5,6-dihydro-4H-pyrrolo[3,2,1-ij]quinoline] | 75 | 49
5 | CCCCC1CCc2cc(O)cc3c(CCN4CCN(c5cc(C)ccn5)CC4)c(C)n1c23 (stereo not drawn) [Example 76] | 100 | 67
6 | Cc1ccnc(N2CCN(CCc3c(C)n4c5c(cc(C(=O)C(C)C)cc35)CCC4)CC2)c1 [Example 27, 5,6-dihydro-2-methyl-8-(2-methyl-1-oxopropyl)-1-{2-[4-(4-methylpyridin-2-yl)piperazin-1-yl]ethyl}-4H-pyrrolo-[3,2,1-ij]quinoline] | 100 | 10
7 | CNc1cc2c3c(c1)c(CCN1CCN(c4cc(C)ccn4)CC1)c(C)n3CCC2 [Example 80] | – | 12
8 | CCCCC1CCc2cc(OC)cc3c(CCN4CCN(c5cc(C)ccn5)CC4)c(C)n1c23 (stereo not drawn) [Example 63] | 100 | 38
9 | Cc1ccnc(N2CCN(CCc3c(-c4ccc(F)cc4)n4c5c(cccc35)CCC4)CC2)c1 [Example 47] | 50 | 69
10 | Cc1ccnc(N2CCN(CCc3c(C)n4c5c(cc([N+](=O)[O-])cc35)CCC4)CC2)c1 [Example 10, 2-Methyl-8-nitro-1-{2-[4-(4-methylpyridin-2-yl)-piperazin-1-yl]ethyl}-5,6-dihydro-4H-pyrrolo[3,2,1-ij]quinoline] | 83 | –
11 | COc1ccc(C2CCc3cc(OC)cc4c(CCN5CCN(c6cc(C)ccn6)CC5)c(C)n2c34)cc1 (stereo not drawn) [Example 65] | 100 | 52
12 | Cc1ccnc(N2CCN(CCc3c(C)n4c5c(cc(Cc6ccccc6)cc35)CCC4)CC2)c1 [Example 77] | 60 | 42
13 | Cc1c(CCN2CCN(c3ccccn3)CC2)c2cccc3c2n1CCC3 [Example 37] | 60 | 32
14 | COc1ccc(C2CCc3cccc4c(CCN5CCN(c6cc(C)ccn6)CC5)c(C)n2c34)cc1 (stereo not drawn) [Example 59] | 95 | 43
15 | Cc1ccnc(N2CCN(CCc3c(C)n4c5c(ccc(C(O)C(C)C)c35)SCC4)CC2)c1 (stereo not drawn) [Example 90] | 81 | 56
16 | Cc1ccnc(N2CCN(CCc3c(C)n4c5c(cccc35)C(C)CC4)CC2)c1 (stereo not drawn) [Example 57] | 100 | –

Row | Structure (SMILES) | inhibition in vivo at 20 µmol/kg [1] [%] | inhibition at 10 µM (cyclooxygenase) [%]
17 | Cc1ccnc(N2CCN(CCc3c(C)n4c5c(c(C(O)C(C)C)ccc35)SCC4)CC2)c1 (stereo not drawn) [Example 89] | – | 32
18 | Cc1ccnc(N2CCN(CCc3c(C)n4c5c(cc(C)cc35)CCC4)CC2)c1 [Example 54] | 93 | –
19 | Cc1ccnc(N2CCN(CC(O)c3c(C4CCCCC4)n4c5c(cccc35)CCC4)CC2)c1 (stereo not drawn) [Example 85] | – | 52
20 | CCc1c(C(O)CN2CCN(c3cc(C)ccn3)CC2)c2cccc3c2n1CCC3 (stereo not drawn) [Example 14, 2-Ethyl-5,6-dihydro-1-{2-[4-(4-methylpyridin-2-yl)piperazin-1-yl]-1-hydroxyethyl}-4H-pyrrolo[3,2,1-ij]quinoline] | 65 | 25
21 | Cc1ccnc(N2CCN(CCc3c(C)n4c5c(c(Cl)cc(Cl)c35)OCC4)CC2)c1 [Example 79] | – | 52
22 | Cc1ccnc(N2CCN(CCc3c(C)n4c5c(cc(C(=O)C6CCCCC6)cc35)CCC4)CC2)c1 [Example 83] | – | 29
23 | Cc1ccnc(N2CCN(CCc3cn4c5c(cccc35)CCC4)CC2)c1 [Example 13, 5,6-Dihydro-1-{2-[4-(4-methylpyridin-2-yl)piperazin-1-yl]ethyl}-4H-pyrrolo[3,2,1-ij]quinoline] | 83 | –
24 | Cc1ccnc(N2CCN(CCc3c(C)n4c5c(cccc35)CCC4c3ccccc3)CC2)c1 (stereo not drawn) [Example 3, 5,6-dihydro-2-methyl-4-phenyl-1-{2-[4-(4-methylpyridine-2-yl)piperazin-1-yl]-ethyl}-4H-pyrrolo[3,2,1-ij]quinoline] | 100 | 20
25 | CC(=O)Oc1cc2c3c(c1)c(CCN1CCN(c4cc(C)ccn4)CC1)c(C)n3CCC2 [Example 24, 8-Acetoxy-5,6-dihydro-2-methyl-1-{2-[4-(4-methyl-pyridin-2-yl)piperazin-1-yl]ethyl}-4H-pyrrolo[3,2,1-ij]quinoline] | 55 | –
26 | CC(C)=Cc1cc2c3c(c1)c(CCN1CCN(c4cc(C)ccn4)CC1)c(C)n3CCC2 [Example 26, 5,6-Dihydro-2-methyl-8-(2-methylprop-1-enyl)-1-{2-[4-(4-methylpyridin-2-yl)piperazin-1-yl]ethyl}-4H-pyrrolo[3,2,1-ij]quinoline] | 95 | 68
27 | Cc1ccnc(N2CCN(CCc3c(C)n4c5c(cccc35)SCC4)CC2)c1 [Example 11, 5-Methyl-6-{2-[4-(4-methylpyridin-2-yl)piperazin-1-yl]ethyl}-2,3-dihydro-pyrrolo[1,2,3-de]-1,4-benzo-thiazine] | 100 | –
28 | CCc1c(CCN2CCN(c3cc(C)ccn3)CC2)c2cccc3c2n1CCC3 [Example 15, 2-Ethyl-5,6-dihydro-1-{2-[4-(4-methylpyridin-2-yl)piperazin-1-yl]ethyl}-4H-pyrrolo[3,2,1-ij]quinoline] | 85 | –
29 | Cc1ccnc(N2CCN(CCc3c(C)n4c5c(cccc35)CCC4C3CCCCC3)CC2)c1 (stereo not drawn) [Example 87] | – | 20
30 | Cc1ccnc(N2CCN(CCc3c(C)n4c5c(cc(NC(=O)C(C)C)cc35)CCC4)CC2)c1 [Example 60] | 100 | –
31 | Cc1c(CCN2CCN(c3ccc(Br)cn3)CC2)c2cccc3c2n1CCC3 [Example 43] | – | 57
32 | Cc1ccnc(N2CCN(CCc3c(-c4ccc(O)cc4)n4c5c(cccc35)CCC4)CC2)c1 [Example 8, 2-(4-hydroxyphenyl)-1-{2-[4-(4-methylpyridin-2-yl)piperazin-1-yl]ethyl}-5,6-dihydro-4H-pyrrolo[3,2,1-ij]quinoline] | – | 74
